# Source: PubChem BioAssay AID504419 (The Scripps Research Institute Molecular Screening Center, 2011)
# Calls of active or inactive are those of the source. No rule for the calls is given here.
# Key:
# NS3h 2a (JFH1) = assay: NS3 helicase inhibitors across HCV genotypes, late-stage follow-up, selectivity assay for HCV NS3 helicase inhibitor project, biochemical, real-time fluorescence, genotypes 2a and 1b, Set 2 (AID 504419); settings: Recombinant NS3 helicase, real-time fluorescence unwinding
# NS3h 1b (con1) = assay: as above; settings: Recombinant NS3 helicase, real-time fluorescence unwinding
IC50 (NS3h 2a (JFH1)),IC50 (NS3h 1b (con1)),Structure (SMILES)
> 100 µM (inactive),> 100 µM (inactive),COc1cc(OC)c2ccc(=O)oc2c1[C@H](CCN1CCN(c2ccccc2)CC1)c1ccc(N(C)C)cc1
> 100 µM (inactive),> 100 µM (inactive),Cc1cc(N2C(=O)C(O)=C(C(=O)c3ccc(C)o3)C2c2cccc(Cl)c2)no1 (stereo not drawn)
> 100 µM (inactive),> 100 µM (inactive),O=C(c1ccc2nc(-c3ccco3)c(-c3ccco3)nc2c1)N1CCN(c2ccccc2)CC1
inactive,> 26.5 µM (inactive),NS(=O)(=O)c1ccc2nc(NC(=O)c3ccc4ncoc4c3)sc2c1
